Measurements reported in article PMC3135721 (Journal of medicinal chemistry, 2010).

Biological target: TSPO (Rattus norvegicus, UniProt P16257)
Assay: Inhibition of [3H]1 binding to rat kidney mitochondrial membranes
Details: ratio of Ki, 20 vs Ib, 21 vs Ic

Row | Structure (SMILES) | gain in activity with respect to desmethyl counterpart
1 | CCCCN(CCCC)C(=O)C(=O)c1c(-c2ccccc2)n(C)c2ccccc12 [compound 20] | 25
2 | CCCCCCN(CCCCCC)C(=O)C(=O)c1c(-c2ccccc2)n(C)c2ccccc12 [compound 21] | 4.6
